Source: US12012415B2, “Compositions and methods for the diagnosis, treatment and prevention of neoplastic and neurological disorders” (AscentGene, Inc., priority 2018, dated 2024)
Entries after “also recorded” stand apart in the source; their conditions may differ.

How the values were obtained:
PC4 protein = PC4 protein (Homo sapiens, UniProt P53999); test: PC4-DNA binding interference; details: for PC4 inhibition: high-throughput screen platform
Description: A number of small molecules were incubated with PC4 protein and DNA binding assessed.

[1] = test system: human non-small cell lung cancer cell line H841; test: Cell growth of NSCLC cell lines; type: cell-based; details: cell growth rate from number of live cells
Description: (§1) Rat glioblastoma cell lines C6 (A) and human non-small cell lung cancer cell line H841 (B) were grown in the proper medium and treated with different concentration of drug candidate AG-1031 (P) and AG-1503 (#3). Cell growth rate was calculated based on the number of live cells as compared to concentration in M of selected small molecules of the invention (see FIGS. 6A and 6B).

[2] = test system: Rat glioblastoma cell lines C6; test: Cell growth of glioblastoma cell line C6; type: cell-based; details: cell growth rate from number of live cells
Description: as §1

[3] = test system: A549 xenograft (NSCLC tumor); test: A549 xenograft mice, AG-1031 treatment after inoculation; type: in vivo; details: 20-40 μg/mice IP every other day, 28 days, after tumor formation
Description: Mice were treated with AG-1031 (20-40 μg/mice) every other day via IP injection after A549 inoculate to the SHO mice treatment and followed for up to 28 days.
Tumor volume was measured during treatment of NSCLC cells with AG-1031 over 28 days.

[4] = test system: A549 xenograft (NSCLC formation); test: A549 xenograft mice, AG-1031 pre-injection (vaccine); type: in vivo
Description: AG-1031 was injected into mice two weeks before injection of tumor cell (see FIG. 9).
Tumor volume was measured for 35 days after administration of AG-1031 to xenograft mice.
IP inject with AG-1031 40 μg/mice, once a week (×2) before A549 cells inoculate to the SHO mice. Assessment of AG-1031 effect on tumor growth in A549 xenograft mice.

[5] = test system: glioma (glioblastoma cell line C6); test: C6 glioma xenograft model, tumor growth, behaviour and memory; type: in vivo, rats; details: for ability of new object recognition: rat, in vivo; for recovery of memory loss and loss of other activities: xenograft model of C6 cell line

| PC4 inhibition (PC4 protein) | Substance | interference of PC4-DNA binding (PC4 protein; small molecules incubated with PC4 protein, in vitro) | inhibition of growth of NSCLC cell lines [1] | inhibition of growth of glioma cell line C6 [2] | growth of NSCLC tumor [3] | tumor volume ([4]; AG-1031 injected two weeks before tumor cells, control 302.9 mm^3) [mm^3] | tumor volumes ([4]; measured for 35 days after administration) | prevention of tumor formation ([4]; pre-injection of AG-1031 before tumor cells) | ability of new object recognition [5] | glioma growth ([5]; xenograft model from C6 cell line) | recovery of memory loss and loss of other activities [5] | open-field anxiety and activity ([5]; rats with glioma) |
| --- | --- | --- | --- | --- | --- | --- | --- | --- | --- | --- | --- | --- |
| strong PC4 inhibitor | 9-methyl (I) and 13-methyl (II) trans-(+)-18-ethenyl-4,4a-dihydro-3,4-bis(methoxycarbonyl)4a,8,14,19-tetramethyl-23H, 25H-benzo[b]porphine-9,13-dipropanoate [AG-1031] | significant interference of PC4-DNA binding; also recorded: specifically inhibits PC4 activity by blocking its double stranded DNA binding ability | inhibition of human non-small cell lung cancer cell line H841; also recorded: inhibited non-small cell lung cancer (NSCLC) cell growth | inhibition of rat glioblastoma cell line C6 | inhibits growth of NSCLC tumor cells; also recorded: inhibiting tumor growth | 69.0 | substantially reduces tumor volumes | prevents NSCLC formation in vivo; also recorded: effectively prevented tumor formation | showed efficacy to improve ability of new object recognition | significantly inhibited glioma growth | recovery of memory loss and other activity loss |  |
| strong PC4 inhibitor | Coproporphyrin III tetramethyl ester [AG-1503] |  | inhibition of human non-small cell lung cancer cell line H841; also recorded: not significant inhibitory activity on growth of NSCLC cell lines | inhibition of rat glioblastoma cell line C6; also recorded: specific inhibitory activity on growth of glioma cell line C6 |  |  |  |  | showed efficacy to improve ability of new object recognition |  | better activity for recovering memory loss and loss of other activities | improvement of anxiety and activity |
